Reference: article PMC11360180, “Enhancement of Antimicrobial Function by L/D-Lysine Substitution on a Novel Broad-Spectrum Antimicrobial Peptide, Phylloseptin-TO2: A Structure-Related Activity Research Study” (Pharmaceutics, 2024)
“And” between values parts separate entries of the source, which are not always exact repeats. Identical values can stand only once. Like-named read-outs stand apart in the source and are kept apart here. Where a SMILES comes first, the peptide text is derived from it. Where no end group is shown, it is not given here. [ ]: non-standard residue; d: D form.

Tests used:
[1] = test system: K. pneumonia (ATCC 43816); assay type: cell-based, Klebsiella pneumonia
Excerpt: (§1) Seven microorganism strains were used to preliminarily evaluate the antimicrobial activity of PSTO2 and its analogues, including Staphylococcus aureus (S. aureus) (ATCC® 6538), methicillin-resistant Staphylococcus aureus (MRSA) (NCTC® 12493), Enterococcus faecalis (E. faecalis) (NCTC® 12697), E. coli (ATCC® 8739), Klebsiella pneumonia (K. pneumonia) (ATCC® 43816), Pseudomonas aeruginosa (P. aeruginosa) (ATCC® CRM 9027), Acinetobacter baumanni (A. baumanni) (BAA® 747), and Candida albicans (C. albicans) (ATCC® 10231). In this study, the strains were cultured in Mueller–Hinton broth (MHB), nutrient broth (NB), and yeast–peptone–dextrose broth (YPD-B) correspondingly at 37 °C, with shaking at 120 rpm. Each peptide was dissolved from 128 μM to 1 μM and mixed with the bacterium at 5 × 10^5 CFU/mL. In this process, bacteria with culture medium were used as the growth control group; PBS was set up as the vehicle control group; sterile culture medium was used as the blank control group; and Norfloxacin at a concentration of 2 mg/mL and amphotericin B at a concentration of 1 mg/mL were set up as the positive control group for bacteria and fungi, respectively.
(§2) After being incubated for 24 h, a Synergy HT plate reader (Bio-Tek, Shoreline, WA, USA) was used to detect the absorbance of each well in the 96-well plate at λ = 550 nm. The concentration at which no visible turbidity could be recorded was the MIC value. Beginning from the MIC value, 10 µL of solution in each clear well was dropped on the sterile agar plates. The plate was checked the next day for colony formation, and the lowest concentration at which no colony growing was recorded as an MBC value.

E. coli (ATCC 8739) = assay type: cell-based, Escherichia coli
Excerpt: as §1, §2

MRSA (NCTC 12493) = assay type: cell-based, methicillin-resistant Staphylococcus aureus
Excerpt: as §1, §2

[2] = test system: P. aeruginosa (ATCC 9027); assay type: cell-based, Pseudomonas aeruginosa
Excerpt: as §1, §2

S. aureus (ATCC 6538) = assay type: cell-based, Staphylococcus aureus
Excerpt: as §1, §2

horse red blood cells = assay type: cell-based
Method: To assess the haemolytic activity of PSTO2 and its analogues, 2% fresh defibrinated horse red blood cells (TCS Biosciences Ltd., Buckingham, UK) were acquired after being washed and resuspended in sterile PBS. Each peptide was dissolved in PBS to prepare solutions with concentrations ranging from 2 µM to 1024 µM. Subsequently, 100 µL of each peptide solution was mixed with 100 µL of the red blood cell suspension. The red blood cells treated with 1% triton X-100 and sterile PBS in equivalent volumes were set up as the positive and negative control groups, respectively. Then, all the samples were incubated at 37 °C for 2 h. Thereafter, the samples were centrifuged at 900× g for 10 min. Finally, 100 µL of supernatant of each sample was transferred into a 96-well plate, and the absorbance was recorded by a Synergy HT plate reader (Bio-Tek, Shoreline, WA, USA) at a wavelength of 570. The following equation was used to calculate haemolysis activity:Haemolysis activity = (Sample absorbance − Ab)/(Ap − Ab) × 100% where Ab refers to the mean value of absorbance of the negative control (incubated with PBS only), and Ap refers to the mean absorbance value of the positive control (incubated with triton X-100).

C. albicans = assay type: cell-based, Candida albicans; settings: 24 h
Excerpt: as §1, §2

A. baumannii (BAA 747) = assay type: cell-based, Acinetobacter baumanni; settings: BAA 747, 24 h
Excerpt: as §1, §2

[3] = test system: MRSA (ATCC 12493) biofilm; assay type: cell-based, methicillin-resistant Staphylococcus aureus; settings: ATCC 12493, 24 h
Method: (§3) To test the anti-biofilm ability of PSTO2 and its analogues, three types of microorganisms (S. aureus ATCC® 6538, E. coli ATCC® 8739, and MRSA NCTC® 12493) were chosen. Tryptic soy broth (TSB) and Lysogeny broth (LB) were used to culture microorganisms. The peptide was dissolved in an autoclaved PBS solution and diluted into concentrations ranging from 51,200 µM to 100 µM. One µL of peptide solution of each concentration was added into a 96-well plate with 100 µL bacterium at 5 × 10^5 CFU/mL. The plate was incubated at 37 °C for 24 h, with shaking at 200 rpm. After overnight incubation, the planktonic bacteria were washed up. Then, 100 µL of methanol was used to fix the biofilms onto the bottom, and 100 µL of 0.1% crystal violet solution (Sigma-Aldrich, Gillingham, UK) was added to each well to stain the biofilms. After drying, 160 µL of acetic acid (30% in deionised water, Sigma-Aldrich, UK) was added to each well to dissolve the shaded parts. The absorbance was detected with the Synergy HT plate reader at λ = 595 nm.
(§4) For the MBEC assay, 100 µL of the bacterium of 5 × 10^5 CFU/mL was transferred into an empty 96-well plate, and the plate was incubated at 37 °C for 24 h to obtain the biofilms primarily. Then, the peptide solution from 512 µM to 1 µM was transferred into a corresponding well, followed by 24 h incubation at 37 °C, with shaking at 200 rpm. After this, the plate was handled using the identical method to the plate in the MBIC assay, and the absorbance of each well was detected with the Synergy HT plate reader at λ = 595 nm. The minimum concentration at which the peptide can eradicate the existing biofilm was recorded as the MBEC value.

[4] = test system: E. coli (ATCC 8739) biofilm; assay type: cell-based, Escherichia coli; settings: ATCC 8739, 24 h
Method: as §3, §4

[5] = test system: S. aureus (ATCC 6538) biofilm; assay type: cell-based, Staphylococcus aureus; settings: ATCC 6538, 24 h
Method: as §3, §4

[6] = clear wells plated on agar, no colony

| Compound | MBC ([1]; ATCC 43816, 24 h) | MIC ([1]; ATCC 43816, 24 h) | HC10 (horse red blood cells) | MBC (E. coli (ATCC 8739); ATCC 8739, 24 h) | MIC (E. coli (ATCC 8739); ATCC 8739, 24 h) | MBC (MRSA (NCTC 12493); NCTC 12493, 24 h) | MIC (MRSA (NCTC 12493); NCTC 12493, 24 h) | MBC ([2]; ATCC 9027, 24 h) | MIC ([2]; ATCC 9027, 24 h) | MBC (C. albicans) | MIC (C. albicans) | MBC (A. baumannii (BAA 747)) | MIC (A. baumannii (BAA 747)) | MBC (S. aureus (ATCC 6538); ATCC 6538, 24 h) | MIC (S. aureus (ATCC 6538); ATCC 6538, 24 h) | MBEC [3] | MBIC [3] | MBEC [4] | MBIC [4] | MBEC [5] | further results |
| --- | --- | --- | --- | --- | --- | --- | --- | --- | --- | --- | --- | --- | --- | --- | --- | --- | --- | --- | --- | --- | --- |
| CC[C@H](C)[C@H](NC(=O)CN)C(=O)NCC(=O)N[C@@H](C)C(=O)N[C@H](C(=O)N[C@@H](CC(C)C)C(=O)N[C@@H](CCCCN)C(=O)N[C@H](C(=O)N[C@@H](CC(C)C)C(=O)N[C@H](C(=O)N[C@H](C(=O)NCC(=O)N[C@@H](CC(C)C)C(=O)N1CCC[C@H]1C(=O)N[C@@H](C)C(=O)N[C@@H](CC(C)C)C(=O)N[C@H](C(=O)N[C@@H](CO)C(=O)N[C@@H](Cc1c[nH]c2ccccc12)C(=O)N[C@H](C(=O)N[C@@H](CCCCN)C(=O)N[C@@H](CCCNC(=N)N)C(=O)N[C@@H](CCCCN)C(=O)N[C@@H](CCCNC(=N)N)C(=O)N[C@@H](CCC(N)=O)C(=O)N[C@@H](CCC(N)=O)C(N)=O)[C@@H](C)CC)[C@@H](C)CC)[C@@H](C)O)[C@@H](C)O)C(C)C)C(C)C [Mellitin, melittin, reference compound] |  |  |  |  |  |  |  |  |  |  |  |  |  |  |  |  |  |  |  |  | MIC ([1]; 5 × 10^5 CFU/mL, 24 h, absorbance 550 nm): 32 µM; MBC [1, 6]: 32 µM; MBC (E. coli (ATCC 8739); [6]): 4 µM; MBC (MRSA (NCTC 12493); [6]): 2 µM; MBC [2, 6]: 32 µM; MBC (S. aureus (ATCC 6538); [6]): 5.7 µg/mL and 2 µM |
| CC[C@H](C)[C@H](NC(=O)[C@H](C)NC(=O)[C@@H](CCCCN)NC(=O)[C@@H]1CCCN1C(=O)[C@@H](NC(=O)[C@H](CC(C)C)NC(=O)[C@H](CO)NC(=O)[C@H](CC(C)C)NC(=O)[C@@H](N)Cc1ccccc1)[C@@H](C)CC)C(=O)N[C@H](CCCCN)C(=O)N[C@@H](C)C(=O)N[C@H](C(=O)N[C@@H](CO)C(=O)N[C@@H](C)C(=O)N[C@@H](CC(C)C)C(=O)N[C@@H](C)C(=O)N[C@@H](CCCCN)C(=O)N[C@H](CCCCN)C(=O)N[C@@H](CC(C)C)C(N)=O)C(C)C [Peptide D1] (H-FLSLIP[dK]AI[dK]AVSALAK[dK]L-NH2) | 128 µM | 128 µM | Not significant | 32 µM | 32 µM | >128 µM | >128 µM | 32 µM | 32 µM | >128 µM | >128 µM | 32 µM | 32 µM | >128 µM | >128 µM |  |  |  |  |  |  |
| CC[C@H](C)[C@H](NC(=O)[C@H](C)NC(=O)[C@@H](CCCCN)NC(=O)[C@@H]1CCCN1C(=O)[C@@H](NC(=O)[C@H](CC(C)C)NC(=O)[C@H](CO)NC(=O)[C@H](CC(C)C)NC(=O)[C@@H](N)Cc1ccccc1)[C@@H](C)CC)C(=O)N[C@H](CCCCN)C(=O)N[C@@H](C)C(=O)N[C@H](C(=O)N[C@H](CCCCN)C(=O)N[C@@H](C)C(=O)N[C@@H](CC(C)C)C(=O)N[C@@H](C)C(=O)N[C@H](CCCCN)C(=O)N[C@H](CCCCN)C(=O)N[C@@H](CC(C)C)C(N)=O)C(C)C [Peptide D2] (H-FLSLIP[dK]AI[dK]AV[dK]ALA[dK][dK]L-NH2) | 128 µM | 128 µM | Not significant | 32 µM | 16 µM | >128 µM | >128 µM | 16 µM | 16 µM | >128 µM | >128 µM | 16 µM | 16 µM | >128 µM | >128 µM |  |  |  |  |  |  |
| FLSLIPKAISAVSALAKHL-NH2 [Peptide 7K] | 8/8 μM |  | 21.97 | 8 µM | 8 µM | 8 µM | 4 µM | 32 µM | 32 µM | 64 µM | 32 µM | >128 µM | >128 µM | 4 µM | 4 µM | 32 µM | 4 µM | 64 µM | 16 µM | 32 µM | MBIC [5]: 16 µM |
| FLSLIPKAISAVSALAKKL-NH2 [Peptide 18K] | 16/16 μM |  | 20.59 | 4/4 μM |  | 4 µM | 4 µM | 64 µM | 32 µM | 128 µM | 32 µM | 32/32 μM |  | 4 µM | 2 µM | 32 µM | 4 µM | 64 µM | 32 µM | 32 µM | MBIC [5]: 8 µM |
